Carcinogen call data for 6 compounds are collected here from PubChem BioAssay AID1259411 (Chemical Carcinogenesis Research Information System (CCRIS), 2018).

Each structure is given as a SMILES string. Active and inactive are the calls of the source. The rule behind the calls is not given here.

The test system of the data set is rodent carcinogenicity bioassays, tumor incidence. The data set is described as follows: CCRIS carcinogenicity studies. Put shortly: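 Archive of carcinogenicity, mutagenicity, tumor promotion and tumor inhibition results drawn from journals, NCI reports and other sources, expert-reviewed; covers 1985-2011 and is no longer updated.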

For `CC(=O)N(O)c1ccc2c(c1)Cc1ccccc1-2`, the carcinogen call (Species: GUINEA PIG, Strain/Sex: FEMALE, Route: INTRAPERITONEAL, Dose: 1.5 G/100 G SUSPENDED IN SALINE-GUM ACACIA 3/WK FOR 27 MO, Tumor Site: Type of Lesion: INJECTION SITE: SARCOMA) was “active; positive”; the carcinogen call (Species: GUINEA PIG, Strain/Sex: MALE, Route: ORAL, Dose: 0.024-0.064% IN DIET (AMOUNT VARIED BECAUSE OF TOXICITY), Tumor Site: Type of Lesion: INTESTINES (SMALL): ADENOCARCINOMA) was “active; positive”; the carcinogen call (Species: HAMSTER, Strain/Sex: MALE, Route: INTRAPERITONEAL, Dose: 1.5 G/100 G SUSPENDED IN SALINE-GUM ACACIA 3/WK FOR 6-8 MO, Tumor Site: Type of Lesion: PERITONEAL CAVITY: FIBROSARCOMA) is “active; positive”; the carcinogen call (Species: HAMSTER, Strain/Sex: MALE, Route: ORAL, Dose: 0.032% IN DIET AS 5-10 G OF GLUCOSE TRITURATE/KG DIET FOR 7.5 MO, Tumor Site: Type of Lesion: FORESTOMACH: PAPILLOMA, SQUAMOUS CELL CARCINOMA, LIVER: BENIGN TUMOR) was “active; positive”; the carcinogen call (Species: MOUSE, Strain/Sex: B6C3F1/MALE, Route: INTRAPERITONEAL, Dose: 0, 0.025, 0.08, 0.23 UMOL/G BW IN 5 µL/G BW OF 80% DMSO ONCE AT 12 D OF AGE (STUDY DURATION: 9 MO), Dose: 0, 0.025, 0.08, 0.23 UMOL/G BW IN 5 µL/G BW OF 80% DMSO ONCE AT 12 D OF AGE (STUDY DURATION: 9 MO), Tumor Site: Type of Lesion: LIVER: HEPATOMA) was “active; positive”; the carcinogen call (Species: MOUSE, Strain/Sex: B6C3F2 (BRACHYMORPHOIC)/MALE, Route: INTRAPERITONEAL, Dose: 0, 0.025, 0.08, 0.23 UMOL/G BW IN 5 µL/G BW OF 80% DMSO ONCE AT 12 D OF AGE (STUDY DURATION: 9 MO), Dose: 0, 0.025, 0.08, 0.23 UMOL/G BW IN 5 µL/G BW OF 80% DMSO ONCE AT 12 D OF AGE (STUDY DURATION: 9 MO), Tumor Site: Type of Lesion: LIVER: HEPATOMA) is “active; positive”. Also, the carcinogen call is “active; positive” (Species: RABBIT, Strain/Sex: NZW/MALE,FEMALE, Route: INTRAPERITONEAL, Dose: 32.3 MG/KG IN 3 ML/KG SALINE 3/WK FOR 40 WK, Tumor Site: Type of Lesion: PERITONEAL CAVITY: SARCOMA); “active; positive” (Species: RAT, Strain/Sex: CRBL/FEMALE, Route: INTRAPERITONEAL, Dose: 4.O MG/100 G 3/WK FOR 2 WK THEN 3.0 MG/100 G 3/WK FOR 2 WK, Tumor Site: Type of Lesion: MAMMARY GLAND: BENIGN TUMOR, NEOPLASM); “active; positive” (Species: RAT, Strain/Sex: F344/FEMALE, Route: INTRAPERITONEAL, Dose: 0.10 MMOL/RAT (TOTAL DOSE), Tumor Site: Type of Lesion: LIVER: CHOLANGIOMA, CARCINOMA); “active; positive” (Species: RAT, Strain/Sex: F344/MALE, Route: ORAL, Dose: 160 UG/G IN DIET FOR 12 WK, Tumor Site: Type of Lesion: LIVER: HEPATOMA); “active; positive” (Species: RAT, Strain/Sex: HOLTZMAN/FEMALE, Route: INTRAPERITONEAL, Dose: 2-AAF EQUIV OF 2.5 MG SUSPENDED IN SALINE-GUM ACACIA 3/WK FOR 3 WK THEN 3.5 MG FOR 2 WK THEN 3.0 MG FOR 9 WK, Tumor Site: Type of Lesion: MAMMARY GLAND: NEOPLASM, PERITONEAL CAVITY: SARCOMA); “active; positive” (Species: RAT, Strain/Sex: HOLTZMAN/FEMALE, Route: INTRAPERITONEAL, Dose: 2-AAF EQUIV OF 4 MG IN 0.4 ML SALINE-GUM ACACIA 3/WK FOR 4 WK, Tumor Site: Type of Lesion: MAMMARY GLAND: NEOPLASM). Further, the carcinogen call by setting is: (Species: RAT, Strain/Sex: HOLTZMAN/FEMALE, Route: ORAL, Dose: 0.032% IN GRAIN DIET FOR 4 MO, Tumor Site: Type of Lesion: MAMMARY GLAND: NEOPLASM, FORESTOMACH: PAPILLOMA, CARCINOMA, EAR (DUCT): NEOPLASM, INTESTINES (SMALL), Tumor Site: Type of Lesion: MAMMARY GLAND: NEOPLASM, FORESTOMACH: PAPILLOMA, CARCINOMA, EAR (DUCT): NEOPLASM, INTESTINES (SMALL)) “active; positive”; (Species: RAT, Strain/Sex: HOLTZMAN/MALE, Route: INTRAPERITONEAL, Dose: 2-AAF EQUIV OF 2.5 MG SUSPENDED IN SALINE-GUM ACACIA 3/WK FOR 3 WK THEN 3.5 MG 3/WK FOR 3 WK THEN 3.0 MG 3/WK FOR 9 WK, Tumor Site: Type of Lesion: EAR (DUCT): NEOPLASM, PERITONEAL CAVITY: SARCOMA, INTESTINES (SMALL): NEOPLASM, Tumor Site: Type of Lesion: EAR (DUCT): NEOPLASM, PERITONEAL CAVITY: SARCOMA, INTESTINES (SMALL): NEOPLASM) “active; positive”; (Species: RAT, Strain/Sex: HOLTZMAN/MALE, Route: ORAL, Dose: 0.032% IN GRAIN DIET FOR 3 MO, Tumor Site: Type of Lesion: LIVER: NEOPLASM, FORESTOMACH: PAPILLOMA, CARCINOMA) “active; positive”; (Species: RAT, Strain/Sex: HOLTZMAN/MALE, Route: SUBCUTANEOUS, Dose: 3.2 MG IN 0.2 ML TRICAPRYLIN 2/WK FOR 4 WK, Tumor Site: Type of Lesion: INJECTION SITE: SARCOMA, EAR (DUCT): CARCINOMA) “active; positive”; (Species: RAT, Strain/Sex: NIHBL/MALE,FEMALE, Route: ORAL, Dose: 80 UG/G IN DIET FOR 64 WK, Tumor Site: Type of Lesion: LIVER: HEPATOMA, CHOLANGIOMA) “active; positive”; (Species: RAT, Strain/Sex: SPRAGUE-DAWLEY/FEMALE, Route: INTRAPERITONEAL, Dose: 0.10, 0.17 MMOL/RAT (TOTAL DOSE), Tumor Site: Type of Lesion: MAMMARY GLAND: ADENOCARCINOMA) “active; positive”. In addition, the carcinogen call by setting is: (Species: RAT, Strain/Sex: STRAIN-CD/FEMALE, Route: INTRAPERITONEAL, Dose: 0, 67 UMOL/KG BW IN DMSO 3/WK FOR 4 WK (STUDY DURATION: 61 WK), Tumor Site: Type of Lesion: MAMMARY GLAND: ADENOCARCINOMA, HEMATOPOIETIC SYSTEM: LEUKEMIA, LYMPHOMA) “active; positive”; (Species: RAT, Strain/Sex: STRAIN-CD/FEMALE, Route: ORAL, Dose: 0.025% IN GRAIN DIET FOR 4 MO, Tumor Site: Type of Lesion: MAMMARY GLAND: CARCINOMA, LIVER: BENIGN TUMOR, NEOPLASM, EAR (DUCT): CARCINOMA, Tumor Site: Type of Lesion: MAMMARY GLAND: CARCINOMA, LIVER: BENIGN TUMOR, NEOPLASM, EAR (DUCT): CARCINOMA) “active; positive”.

Take `C=[N+]=[N-]`: the carcinogen call is “active; positive” (Species: MOUSE, Route: INHALATION, DERMAL, Tumor Site: Type of Lesion: LUNG) and “active; positive” (Species: RAT, Route: INHALATION, Tumor Site: Type of Lesion: LUNG).

`CCN(CC)c1ccc(C(=C2C=CC(=[N+](CC)CC)C=C2)c2ccc(S(=O)(=O)O)cc2S(=O)(=O)[O-])cc1`: the carcinogen call (Species: RAT, Route: SUBCUTANEOUS, INTRAMUSCULAR, Tumor Site: Type of Lesion: INJECTION SITE) was “active; positive”.

As to `C=CC(OCC)OCC`, the carcinogen call is “inactive; negative” (Species: HAMSTER, Strain/Sex: SYRIAN/MALE, Route: GAVAGE, Dose: 0, 2 MG/WK FOR 54 OR 64 WK (STUDY DURATION: 92 WK)); “inactive; negative” (Species: RAT, Strain/Sex: F344/FEMALE, Route: ORAL, Dose: 0, 470, 1200 MG/L IN DRINKING WATER 5 D/WK FOR 100 WK (STUDY DURATION: 130 WK), Dose: 0, 470, 1200 MG/L IN DRINKING WATER 5 D/WK FOR 100 WK (STUDY DURATION: 130 WK)); “inactive; negative” (Species: RAT, Strain/Sex: F344/MALE, Route: ORAL, Dose: 0, 470, 1200 MG/L IN DRINKING WATER 5 D/WK FOR 100 WK (STUDY DURATION: 130 WK), Dose: 0, 470, 1200 MG/L IN DRINKING WATER 5 D/WK FOR 100 WK (STUDY DURATION: 130 WK)).

On to `CC(=O)N(O[C@@H]1O[C@H](C(=O)O)[C@@H](O)[C@H](O)[C@H]1O)c1ccc2c(c1)Cc1ccccc1-2`, for which the carcinogen call is, setting by setting: (Species: RAT, Strain/Sex: F344/MALE, Route: INJECTION, Dose: 0, 1 UMOL IN 0.5 ML OF SOLUTION CONTAINING 0.4 ML PHOSPHATE BUFFERED SALINE/ GENTAMYCIN (PH 7) AND 0.1 ML DMSO INJECTED) “inactive; negative”; (Species: RAT, Strain/Sex: F344/MALE, Route: INJECTION, Dose: 0, 1 UMOL IN 0.5 ML OF SOLUTION CONTAINING 0.4 ML PHOSPHATE BUFFERED SALINE/ GENTAMYCIN (PH 8) AND 0.1 ML DMSO INJECTED) “inactive; negative”.

Take `CCN(N=O)C(C)=O`: the carcinogen call is, setting by setting: (Species: MOUSE, Strain/Sex: BALB/C/MALE, Route: ORAL, Dose: 0, 1000, 2000 PPM IN DRINKING WATER FOR 2 WK (STUDY DURATION: 52 WK), Dose: 0, 1000, 2000 PPM IN DRINKING WATER FOR 2 WK (STUDY DURATION: 52 WK), Tumor Site: Type of Lesion: LUNG: TUMOR) “active; positive”; (Species: RAT, Strain/Sex: WISTAR/MALE, Route: ORAL, Dose: 0, 1000, 2000 PPM IN DRINKING WATER FOR 2 WK (STUDY DURATION: 52 WK), Dose: 0, 1000, 2000 PPM IN DRINKING WATER FOR 2 WK (STUDY DURATION: 52 WK)) “inactive; negative”.
